Measurements published in ChEMBL document CHEMBL1125353, “Structure-activity studies on benzhydrol-containing nipecotic acid and guvacine derivatives as potent, orally-active inhibitors of GABA uptake” (J Med Chem, 1992).

The compounds below were run on Mus musculus (assay: Potency inhibiting tonic extensor seizures from low-intensity corneal electroshock in mice following peroral administration.). Settings: not given.
Assay type: functional

In the case of `Cl.O=C(O)C1=CCCN(CCOC(c2ccc(C(F)(F)F)cc2)c2ccc(C(F)(F)F)cc2)C1`, the ED50 is reported as 1 mg/kg.

The compounds below were run on Mus musculus (assay: Potency of the inhibiting ataxia in mice following peroral administration.). Settings: not given.
Assay type: functional

`Cl.O=C(O)C1=CCCN(CCOC(c2ccc(C(F)(F)F)cc2)c2ccc(C(F)(F)F)cc2)C1` showed an ED50 of 64 mg/kg.

Species: Rattus norvegicus
Assay: In vitro Inhibitory activity against GABA uptake
Assay type: functional
Settings: not given

`O=C(O)[C@@H]1CCCNC1` [(R)-NIPECOTIC ACID] gave an IC50 of 5.2 µM.

Species: Rattus norvegicus
Assay: In vitro inhibition of [3H]GABA uptake in rat Hippocampal slices.
Assay type: functional, organism-based
Settings: not given

With `O=C(O)[C@H]1CCCN(CCOC(c2ccc(Cl)cc2)c2ccc(Cl)cc2)C1` (stereo in doubt; 37) the IC50 was 0.18 µM.
For `O=C(O)[C@H]1CCCN(CCOC(c2ccc(Cl)cc2)c2ccc(Cl)cc2)C1` (stereo in doubt; 36), the IC50 was 14 µM.

Same assay, conditions: Rattus norvegicus, 3 h

First: O=C(O)C1CCCN(CCCOC(c2ccccc2)(c2ccccc2)c2ccccc2)C1 (stereo not given)
Second: O=C(O)C1CCCN(CCCOC(c2ccccc2)c2ccccc2)C1 (stereo not given)
The IC50 of the first is 1.5-fold lower: 7.9 µM for the first, 12 µM for the second. The first is the more potent here.

`O=C(O)C1CCCN(CCOC(c2ccc(Cl)c(Cl)c2)C2CCCCC2)C1` (stereo not given) and `O=C(O)C1CCCN(CCOC(c2ccccc2)c2ccc(Cl)c(Cl)c2)C1` (stereo not given) are within 1.5-fold of each other in IC50: 1.1 µM for the first, 1.2 µM for the second.

Compared with `O=C(O)C1CCCN(CCC=C(c2ccccc2)c2ccccc2)C1` (stereo not given), `O=C(O)C1CCCN(CCOC(c2ccccc2)c2ccccc2)C1` (stereo not given) is 2.9-fold lower in IC50: 10 µM for the first, 3.4 µM for the second.

`OCC1CCCN(CCOC(c2ccc(Cl)cc2)c2ccc(Cl)cc2)C1` (stereo not given) and `NC(=O)C1CCCN(CCOC(c2ccc(Cl)cc2)c2ccc(Cl)cc2)C1` (stereo not given) are within 1.5-fold of each other in IC50: 47 µM for the first, 35 µM for the second.

Going from `O=C(O)C1CCCN(CCOC(c2ccc(C(F)(F)F)cc2)c2ccc(C(F)(F)F)cc2)C1` (stereo not given) to `Cl.O=C(O)C1=CCCN(CCOC(c2ccc(C(F)(F)F)cc2)c2ccc(C(F)(F)F)cc2)C1`, the IC50 falls from 0.71 µM to 0.34 µM (2.1-fold). The second is the more potent here.

`Cc1ccc(C(OCCN2CCCC(C(=O)O)C2)c2ccc(C)cc2)cc1` (stereo not given) and `O=C(O)C1CCCN(CCOC(c2ccc(F)cc2)c2ccc(F)cc2)C1` (stereo not given) are within 1.5-fold of each other in IC50: 5.7 µM for the first, 7.8 µM for the second.

`Clc1ccc(C(OCCN2CCCCC2)c2ccc(Cl)cc2)cc1` and `CC(=O)C1CCCN(CCOC(c2ccc(Cl)cc2)c2ccc(Cl)cc2)C1` (stereo not given) are within 1.5-fold of each other in IC50: 21 µM for the first, 22 µM for the second.

First: CN(C)C(=O)C1CCCN(CCOC(c2ccc(Cl)cc2)c2ccc(Cl)cc2)C1 (stereo not given)
Second: CNC(=O)C1CCCN(CCOC(c2ccc(Cl)cc2)c2ccc(Cl)cc2)C1 (stereo not given)
The IC50 of the first is 1.6-fold lower: 25 µM for the first, 40 µM for the second. The first is the more potent here.

`O=C(O)C1CCCN(CC(=O)C(c2ccccc2)c2ccccc2)C1` (stereo not given) and `O=C(O)C1CCCN(CCSC(c2ccccc2)c2ccccc2)C1` (stereo not given) cannot be ordered by IC50: greater than 50 µM for the first, 60 µM for the second.

Compared with `O=C(O)C1CCCN(CCOC(c2ccc(Cl)cc2)c2ccc(Cl)c(C(F)(F)F)c2)C1` (stereo not given), `Cl.O=C(O)C1CCCN(CCOC(c2ccc(Cl)cc2)c2ccc(Cl)cc2)C1` (stereo not given) is 3.4-fold lower in IC50: 1.4 µM for the first, 0.41 µM for the second. The second is the more potent here.

First: O=C(O)C1CCCN(CCOC(c2ccc(OC(F)(F)F)cc2)c2ccc(OC(F)(F)F)cc2)C1 (stereo not given)
Second: O=C(O)C1CCN(CCOC(c2ccc(Cl)cc2)c2ccc(Cl)cc2)C1 (stereo not given)
The IC50 of the first is lower: 0.92 µM for the first, greater than 50 µM for the second.

Going from `CCCC(CCC)C(=O)O` [VALPROIC ACID] to `O=C(O)C1CCCN(CCC(Cc2ccccc2)c2ccccc2)C1` (stereo not given), the IC50 falls from greater than 50 µM to 50 µM.

First: O=C(O)[C@@H]1CCCNC1 [(R)-NIPECOTIC ACID]
Second: O=C(O)[C@H]1CCCNC1 [(S)-NIPECOTIC ACID]
The IC50 of the first is 11-fold lower: 5.2 µM for the first, 55 µM for the second. The first is the more potent here.

First: Cl.O=C(O)C1=CCCN(CCOC(c2ccc(Cl)cc2)c2ccc(Cl)cc2)C1
Second: O=C(O)C1CCN(CCOC(c2ccc(Cl)cc2)c2ccc(Cl)cc2)CC1
The IC50 of the first is lower: 0.41 µM for the first, greater than 50 µM for the second.

Going from `O=C(O)C1CCCN(CCOC(c2ccc(Cl)cc2)c2cccs2)C1` (stereo not given) to `O=C(O)C1CCCN(CCOC(c2ccc(Cl)cc2)c2ccco2)C1` (stereo not given), the IC50 rises from 3.6 µM to 8.7 µM (2.4-fold). The first is the more potent here.

Compared with `O=C(O)C1CCCN(CCOC(c2ccc(Cl)c(Cl)c2)c2ccc(Cl)c(Cl)c2)C1` (stereo not given), `O=C(O)C1CCCN(CCOC(c2ccccc2)c2ccc(Cl)cc2)C1` (stereo not given) is 8-fold higher in IC50: 2.5 µM for the first, 20 µM for the second. The first is the more potent here.

Going from `O=C(O)C1CCCN(CCc2oc3ccccc3c2-c2ccccc2)C1` (stereo not given) to `O=C(O)C1CCCN(CCC2CC2(c2ccccc2)c2ccccc2)C1` (stereo not given), the IC50 rises from 22 µM to greater than 50 µM. The first is the more potent here.

Compared with `Cc1cc(Cl)ccc1C(OCCN1CCCC(C(=O)O)C1)c1ccc(Cl)cc1C` (stereo not given), `O=C(O)C1CCCN(CCOC2c3ccc(Cl)cc3CCc3cc(Cl)ccc32)C1` (stereo not given) is 2-fold lower in IC50: 3.2 µM for the first, 1.6 µM for the second.

First: NC(=O)N1c2ccccc2C=Cc2ccccc21 [CARBAMAZEPINE]
Second: O=C(O)C1CCCN(CCOC2c3ccccc3C=Cc3ccccc32)C1 (stereo not given)
The IC50 of the first is higher: greater than 50 µM for the first, 2.5 µM for the second. The second is the more potent here.

Going from `O=C1CCCN1CCOC(c1ccc(Cl)cc1)c1ccc(Cl)cc1` to `N#CC1CCCN(CCOC(c2ccc(Cl)cc2)c2ccc(Cl)cc2)C1` (stereo not given), the IC50 rises from 26 µM to greater than 50 µM.

First: O=C(O)C1=CCCNC1 [GUVACINE]
Second: O=C(CCCN1CCCC(C(=O)O)C1)c1ccc(F)cc1 (stereo not given)
The IC50 of the first is lower: 7.3 µM for the first, greater than 50 µM for the second.

`O=C(O)[C@H]1CN(CCOC(c2ccc(Cl)cc2)c2ccc(Cl)cc2)CC[C@@H]1O` and `O=C(O)[C@H]1CN(CCOC(c2ccc(Cl)cc2)c2ccc(Cl)cc2)CC[C@H]1O` are within 1.5-fold of each other in IC50: 1.2 µM for the first, 1.5 µM for the second.

Going from `COC(=O)C1CCCN(CCOC(c2ccc(Cl)cc2)c2ccc(Cl)cc2)C1` (stereo not given) to `CCOC(=O)C1CCCN(CCOC(c2ccc(Cl)cc2)c2ccc(Cl)cc2)C1` (stereo not given), the IC50 rises from 0.7 µM to 11 µM (16-fold).

First: COC(=O)C1=CCCN(CCOC(c2ccc(C(F)(F)F)cc2)c2ccc(C(F)(F)F)cc2)C1
Second: O=C(O)CC1CCN(CCOC(c2ccc(Cl)cc2)c2ccc(Cl)cc2)C1 (stereo not given)
The IC50 of the first is 15-fold higher: 40 µM for the first, 2.7 µM for the second.

Work on `O=C1NC(=O)C(c2ccccc2)(c2ccccc2)N1` [PHENYTOIN] yielded an IC50 greater than 50 µM.

These compounds were tested against Sodium channel alpha subunits; brain (Types I, II, III) (Rattus norvegicus, UniProt P04775+P04774+P08104) (assay: Inhibition of veratridine-stimulated [14C]- guanidine influx into rat cortical slice). Settings: not given.
Assay type: functional

`Cl.O=C(O)C1=CCCN(CCOC(c2ccc(C(F)(F)F)cc2)c2ccc(C(F)(F)F)cc2)C1` gave an IC50 of 10 µM.

What follows are compounds tested on Rattus norvegicus (assay: Anticonvulsant activity against kindled rats was determined after ip administration). Settings: not given.
Assay type: functional

Going from `Cl.O=C(O)C1=CCCN(CCOC(c2ccc(Cl)cc2)c2ccc(Cl)cc2)C1` to `Cl.O=C(O)C1CCCN(CCOC(c2ccc(Cl)cc2)c2ccc(Cl)cc2)C1` (stereo not given), the ED50 rises from 14 mg/kg to 25 mg/kg (1.8-fold).

Species: Rattus norvegicus
Assay: Potency inhibiting focal seizures in rat hippocampus preventing hippocampal after discharges
Assay type: functional
Settings: not given

`Cl.O=C(O)C1=CCCN(CCOC(c2ccc(C(F)(F)F)cc2)c2ccc(C(F)(F)F)cc2)C1` was tested, and the ED50 was 2.6 mg/kg.

Each compound was assayed on Rodentia sp. (assay: Potency inhibiting clonic seizures induced by GABA antagonist pentylene tetrazole(PTZ) in rodents following oral administration.). Settings: not given.
Assay type: functional

`Cl.O=C(O)C1=CCCN(CCOC(c2ccc(C(F)(F)F)cc2)c2ccc(C(F)(F)F)cc2)C1` showed an ED50 of 0.4 mg/kg.

The compounds below were run on Rodentia sp. (assay: Inhibitory potency against threshold clonic seizures induced by ip picrotoxin in rodents). Settings: not given.
Assay type: functional

For `Cl.O=C(O)C1=CCCN(CCOC(c2ccc(C(F)(F)F)cc2)c2ccc(C(F)(F)F)cc2)C1`, the Ataxia was 1.7%.
